Laboratory results as given in patent US4322496A, “Inhibition of lactate oxidase” (Eastman Kodak Company, priority 1980, dated 1982).
Like-named read-outs stand apart in the source and are kept apart here.

How the values were obtained:
[1] = biological target: T1, L-Lactate Oxidase (Enterococcus casseliflavus, UniProt C9AC47); experiment: biochemical; details: for inhibition of the enzymatic activity of lactate oxidase: measured at 30° C.; for inhibition at 10000 µM: acid 10mM, read-out: LO % Inhibition
T1 sequence (C9AC47 1-367): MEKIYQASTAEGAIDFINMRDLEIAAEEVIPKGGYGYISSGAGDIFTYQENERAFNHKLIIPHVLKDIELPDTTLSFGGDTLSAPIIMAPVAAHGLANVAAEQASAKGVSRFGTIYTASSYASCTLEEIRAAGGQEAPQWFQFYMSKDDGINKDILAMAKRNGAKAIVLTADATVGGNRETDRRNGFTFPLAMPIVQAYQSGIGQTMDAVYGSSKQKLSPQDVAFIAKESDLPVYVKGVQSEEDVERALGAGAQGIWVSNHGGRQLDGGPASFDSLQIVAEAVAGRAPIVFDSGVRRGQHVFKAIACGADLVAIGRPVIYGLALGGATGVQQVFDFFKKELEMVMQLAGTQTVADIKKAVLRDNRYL
Method: (§1) In the examples, oxidative enzymes were prepared from Streptococcus faecium ATCC 12755. L-lactate oxidase was isolated from Streptococcus faecium as a 0-50% ammonium sulfate fraction as described in Esders et al., U.S. Pat. No. 4,166,763 issued Sept. 4, 1979. L-α-glycerophosphate oxidase was purified from Streptococcus faecium as described in Table V, of Research Disclosure Publication No. 16146 published Sept. 10, 1977.
In the examples, enzyme assays for lactate oxidase were carried out as follows: Assay reaction mixtures contained in a total volume of 1.0 ml: 100 μmoles potassium phosphate buffer, pH 7.0, 25 μmoles lactic acid, […] horseradish peroxidase (4.6 purpurogallin units), and 0.25 μmoles orthodianisidine. Compounds to be tested as potential inhibitors for lactate oxidase were added to the assay reaction mixtures as indicated in Example 1. Samples were equilibrated at 30° C. and then reactions were initiated by addition of Streptococcus faecium lactate oxidase. Absorbance at 430 nm was measured in a Beckman 25 spectrophotometer. Initial rates were calculated from the linear portion of the curve.

[2] = biological target: T2, L-α-Glycerophosphate Oxidase (Enterococcus casseliflavus, UniProt O86963); experiment: L-α-glycerophosphate oxidase enzyme assay (absorbance at 430 nm); format: biochemical; details: for inhibition at 5000 µM: compound at 5 mM, 37° C., pH 7.0, read-out: L-α-Glycerophosphate Oxidase Percent Inhibition
T2 construct: L-α-glycerophosphate oxidase was purified from Streptococcus faecium; made in house; host or cells: Streptococcus faecium ATCC 12755 (native organism, not recombinant)
T2 sequence (O86963 1-609): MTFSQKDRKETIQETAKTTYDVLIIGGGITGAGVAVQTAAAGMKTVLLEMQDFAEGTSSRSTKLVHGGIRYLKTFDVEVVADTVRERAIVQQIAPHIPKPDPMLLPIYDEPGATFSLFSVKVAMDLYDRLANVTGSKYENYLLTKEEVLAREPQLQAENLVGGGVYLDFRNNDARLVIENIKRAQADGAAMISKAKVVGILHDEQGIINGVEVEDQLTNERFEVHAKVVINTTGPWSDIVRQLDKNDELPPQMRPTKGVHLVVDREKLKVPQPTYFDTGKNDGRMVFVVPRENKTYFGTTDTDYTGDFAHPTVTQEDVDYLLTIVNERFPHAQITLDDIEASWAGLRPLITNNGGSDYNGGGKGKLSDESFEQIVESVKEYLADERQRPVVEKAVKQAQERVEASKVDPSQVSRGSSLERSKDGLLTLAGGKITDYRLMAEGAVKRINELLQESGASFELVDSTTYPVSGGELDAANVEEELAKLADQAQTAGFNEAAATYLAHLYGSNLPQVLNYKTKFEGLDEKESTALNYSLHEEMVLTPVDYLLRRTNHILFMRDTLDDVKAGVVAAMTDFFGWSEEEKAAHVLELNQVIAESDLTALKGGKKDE
Method: as §1, with “1977. Extensively purified L-α-glycerophosphate oxidase (material carried through the whole purification sequence) contained L-α-glycerophosphate:lactate oxidase activity ratios of (1700-3000:1), whereas the partially purified L-α-glycerophosphate oxidase (material isolated as the 50-80% ammonium sulfate fraction) contained L-α-glycerophosphate:lactate oxidase activity ratios of 30-100:1.” for “1977.”
In the examples, enzyme assays for L-α-glycerophosphate oxidase were carried out as follows: Assay reaction mixtures contained in a total volume of 1.0 ml: 100 μmoles potassium phosphate buffer, pH 7.0, 66 μg orthodianisidine, 25 μg horseradish peroxidase (4.6 purpuragallin units) and 200 μmoles DL-α-glycerophosphate (at pH 7.0). Compounds to be tested as potential inhibitors were added to the reaction mixtures as indicated in Example 1. Samples were equilibrated at 37° C. and the reactions were initiated by the addition of an aliquot of enzyme. Absorbance at 430 nm was measured in a Beckman 25 spectrophotometer. Initial rates were calculated from the linear portion of the curve.

[3] = biological target: T3, beef meat lactate dehydrogenase (Bos taurus, UniProt P19858); experiment: LDH assay reaction mixture (pyruvate/NADH); format: biochemical; details: acid 10 mM; pH 7.5
T3 construct: beef meat lactate dehydrogenase; from tissue; host or cells: beef meat (skeletal muscle)
Method: The effect of these acids on LO was evaluated by studying an LO assay reaction mixture having the composition described above. The effect of these acids on LDH was evaluated by studying an LDH assay reaction mixture which contained in a total volume of 1.0 ml: 50 μmoles potassium phosphate buffer (pH 7.5); 1 μmole sodium pyruvate; 0.13 μmole NADH; 0.02 μg beef meat lactate dehydrogenase (320 U/mg) and the acid at a concentration of 10 mM. In the absence of acid, the rate of reaction was assumed to be 100% and the percent inhibition of each reaction was calculated accordingly.

[4] = biological target: T4, lactate oxidase activity in partially purified DL-α-glycerophosphate oxidase (Enterococcus casseliflavus, UniProt C9AC47); experiment: Lactate/serum blank reaction, solution mode; format: biochemical; details: 10 min, 37° C.; for Response to Normal Serum ΔA490: 20 μl normal serum
T4 sequence (C9AC47 1-367): T1 sequence (C9AC47 1-367)
Method: Solution incubation mixtures contained in a total volume of 1.0 ml: 100 μmoles potassium phosphate buffer, pH 7.0, 0.12 mg 4-aminoantipyrene.HCl, 0.04 mg 1,7-dihydroxynaphthalene, 25 μg horseradish peroxidase (4.6 purpurogallin units), 0.36 units glycerol kinase, 4.6 units partially purified DL-α-glycerophosphate oxidase, and 10 mg Triton X-100. Reactions were initiated by addition of 20 μl of normal serum or 50 μl of 1 mM Dl-lactate, and after ten minutes at 37° C., the absorbance was measured at 490 nm. In each case, a reagent blank (all components except substrate) was subtracted to give the change in absorbance at 490 nm, ΔA490.

[5] = biological target: T5, lactate oxidase activity in partially purified L-α-glycerophosphate oxidase (Enterococcus casseliflavus, UniProt C9AC47); experiment: Lactate blank reaction in dry chemistry triglyceride test element; format: biochemical; details: for Response to Lactate (DR): partially purified α-GPO, 10 μl DL-lactate 20 mg/dl, 540 nm, 7 min, 37° C.
T5 sequence (C9AC47 1-367): T1 sequence (C9AC47 1-367)
Method: (§2) In the examples, non-fibrous, multilayer, "dry chemistry" analytical elements for determination of serum triglycerides were formulated having the following structure and composition: […]
(§3) The enzymatic reagent layer composition of the above-noted "dry chemistry" analytical element contained deionized gelatin (5.4 g/m^2); gel hardener (32.4 mg/m^2); poly(methyl acrylate-co-2-acrylamido-2-methylpropanesulfonic acid-co-2-acetoacetoxyethyl methacrylate) having a monomer weight ratio of (88.8:4.7:6.5) as peroxidase stabilizer (5.4 g/m^2); 0.05 M potassium phosphate buffer, pH 7.0; Triton X-100 surfactant (389 mg/m^2); 2-(3,5-dimethoxy-4-hydroxyphenyl)4,5-bis(4-dimethylaminophenyl)imidazole as a leuco dye (405 mg/m^2 dispersed in 2,4-di-n-amylphenol (4.05 g/m^2); antioxidant (324 mg/m^2); MgCl (103 mg/m^2); adenosinetriphosphate (1.35 g/m^2); peroxidase (7020 U/m^2); glycerol kinase (324 U/m^2); and either purified or partially purified L-α-glycerophosphate oxidase (2840 U/m^2). When the partially purified L-α-glycerophosphate oxidase was used, glycolate was incorporated into that layer in the amounts noted below in Example 2.
A. Dry Chemistry Test Element Mode: Dry chemistry analytical elements for the determination of triglycerides were prepared with either the purified or partially purified L-α-GPO as described above. To each element, a 10 μl sample of DL-lactate (20 mg/dl) was applied and the reflection density of the element, DR, at 540 nm was measured through the element support after a seven-minute incubation at 37° C.

[6] = tested on: components of the triglyceride detection system; experiment: Response of dry chemistry triglyceride test elements to test fluids; details: 81 or 405 mg/m^2 glycolate in element
Method: as §2
as §3, with “When the partially purified L-α-glycerophosphate oxidase was used, glycolate was incorporated into that layer in the amounts noted below in Example 2.” left out
Dry chemistry analytical elements (as described above) containing purified L-α-glycerophosphate oxidase and partially purified enzyme plus two different levels of glycolate were compared for response to serum triglycerides and glycerol. […] After a sevenminute incubation at 37° C., the reflection density, DR, at 540 nm was measured through the element support. […]

[7] = compound at 5 mM, 30° C., pH 7.0, rate without compound = 100%, read-out: L-Lactate Oxidase Percent Inhibition
[8] = pH 7, read-out: L-Lactate Oxidase Percent Inhibition

SMILES | inhibition at 5000 µM [1, 7] [%] | inhibition of the enzymatic activity of lactate oxidase [1] [%] | inhibition of lactate oxidase activity (in words) [1] | further results
O=C(O)C(O)CO (racemic) [Glyceric Acid] | 21 | < 50 | – | –
NCC(=O)O [Glycine] | – | – | little or no inhibition | inhibition at 5000 µM [1, 8]: 0%
O=C(O)CO [Glycolic Acid] | 90 | – | greatly inhibit | inhibition of L-α-GPO (in words) [2]: do not inhibit; inhibition at 5000 µM [2]: 0%; inhibition at 10000 µM [3]: 11%; Response to Normal Serum ΔA490 ([4]; glycolate 1 mM): 0.006; Response to 50 μM DL-Lactate ΔA490 ([4]; glycolate 1 mM): 0.008; Response to Normal Serum ΔA490 ([4]; glycolate 2 mM): 0; Response to 50 μM DL-Lactate ΔA490 ([4]; glycolate 2 mM): 0; Response to Normal Serum ΔA490 ([4]; glycolate 3 mM): 0; Response to 50 μM DL-Lactate ΔA490 ([4]; glycolate 3 mM): 0; inhibition at 10000 µM [1]: 90%; lactate blank relative to control (purified α-GPO) ([5]; 81 mg/m^2 glycolic acid): 1.6 times control; Response to Lactate (DR) ([5]; 81 mg/m^2 glycolic acid): 0.04; reaction with lactate compared with control (purified α-GPO) ([5]; 405 mg/m^2 glycolic acid): less than that observed with the purified L-α-glycerophosphate oxidase; Response to Lactate (DR) ([5]; 405 mg/m^2 glycolic acid): 0.01; inhibition of the components of the triglyceride detection system (in words) [6]: did not inhibit any of the components of the triglyceride detection system
O=CC(=O)O [Glyoxalic Acid] | 100 | – | inhibited the enzyme | inhibition of L-α-GPO (in words) [2]: inhibited L-α-GPO as well; inhibition at 5000 µM [2]: 100%; inhibition at 10000 µM [3]: 15%; inhibition at 10000 µM [1]: 100%
CC(O)C(N)=O (stereo not shown) [Lactamide] | 0 | – | little or no inhibition | –
O=C(O)CC(O)C(=O)O (stereo not shown) [Malic Acid] | 0 | – | little or no inhibition | –
O=C(O)CC(=O)O [Malonic Acid] | 30 | < 50 | – | –
COCC(=O)O [Methoxyacetic Acid] | – | – | little or no inhibition | inhibition at 5000 µM [1, 8]: 0%
O=C(O)C(=O)O [Oxalic Acid] | 94 | – | greatly inhibit | inhibition of L-α-GPO (in words) [2]: do not inhibit; inhibition at 5000 µM [2]: 0%; inhibition at 10000 µM [3]: 100%; inhibition at 10000 µM [1]: 94%
NC(=O)C(=O)O [Oxamic Acid] | 40 | < 50 | – | –
NC(=O)C(N)=O [Oxamide] | 43 | < 50 | – | –
O=C(O)C(O)C(=O)O [Tartronic Acid] | 10 | – | – | –
CCC(O)C(=O)O (stereo not drawn) [α-Hydroxybutyric Acid] | 7 | < 50 | – | –
O=C(O)CCC(=O)C(=O)O [α-Ketoglutaric Acid] | – | – | little or no inhibition | inhibition at 5000 µM [1, 8]: 0%
CC(O)CC(=O)O (stereo not drawn) [β-Hydroxybutyric Acid] | 0 | – | little or no inhibition | –
